The values that follow come from patent publication US11014908B2, “Chemical compounds” (Pfizer Inc., priority 2018, dated 2021).

This test deals with human HbA (Homo sapiens, UniProt P68871+P69905). Briefly: Co-crystallization with HbA. As to conditions: 1.85 Å co-crystal structure with human HbA. The source says: Co-Crystallization with HbA
The binding of the compound of Example 58 to hemoglobin (Hb) was further investigated through co-crystallization experiments. Given the structural and functional similarity of HbS and HbA, and the large quantity of material needed for structural studies, purified HbA was utilized for these studies.
HbA with Example 58 was crystallized according to published protocols (Lee et al. “Crowning proteins: modulating the protein surface properties using crown ethers”, Angew Chem Int Ed Engl 2014; 53(48):13054-13058). Briefly, 20 mg/mL HbA in 20 mM Tris-HCl (pH 8.0) was mixed with equal volume of 50 mM 18-crown-6 solution and incubated at 20° C. for 20 minutes. Example 58 was then added to a final concentration of 1.5 mM and further incubated for an additional 1 hr. Crystallization was performed at 20° C. using hanging drop vapor diffusion method by mixing equal volumes of protein and reservoir solution containing 0.1 M Tris-HCl (pH 8.0), 0.2 M Li2SO4 and 30-32% PEG 3350. Crystals grew to their maximum size in ˜2 days and the crystals were further soaked overnight with 10 mM Example 58. Diffraction data were collected at the Argonne National Laboratory Advanced Photon Source, beamline 17-ID. The data was processed using autoPROC (Global Phasing Limited) and the structure was solved using 3WHM (PDB code) as a starting model. […]

Consider `C[C@H](Oc1cc2cc(F)ccc2nc1N)c1nc(O)ccc1-n1cccn1` [Example 58, 6-{(1S)-1-[(2-amino-6-fluoroquinolin-3-yl)oxy]ethyl}-5-(1H-pyrazol-1-yl)pyridin-2-ol], for which the “Hb conformation bound in co-crystal structure” value is given as “binds to the oxygenated (R state) conformation of Hb”.
